Measured values taken from US20230204598A1, “MAM-SPECIFIC FLUORESCENCE MARKER AND USE THEREOF” (POSTECH ACADEMY-INDUSTRY FOUNDATION, priority 2016, published 2023).

Tested on: MAM structure in HEK293 cells
Experiment: Verification of MAM specificity of the fluorescent marker using a drug (MAM suppressor)
Assay type: cell-based
Conditions: HEK293 cells transfected with the MAM-specific bimolecular fluorescent marker; 150 μM added to the cell culture solution; incubated for 3 or 24 hours; fluorescence microscope (FIG. 7)
Protocol: HEK293 cells transfected in Example 4-1 were incubated in DMEM containing a 10% fetal bovine serum (FBS) for 24 hours under conditions of 37° C. and 5% CO2. Afterward, the culture solution was washed with PBS, and then cells were fixed by treatment with a 4% para-formaldehyde cell fixing solution for 10 minutes. The cell fixing solution was sufficiently washed with PBS, and a cover glass was immobilized on a slide glass using a mounting solution, thereby manufacturing a microscope sample. […]
The MAM-specific bimolecular fluorescent marker was transfected into HEK293 cells in the same manner as in Example 5-1, 150 μM of methyl-β-cyclodextrin known as a MAM suppressor was added to the cell culture solution, and the cells were incubated for 3 or 24 hours under cell culture conditions, thereby manufacturing a microscope sample, and then the microscope sample was observed using a fluorescence microscope.

## methyl-β-cyclodextrin
  fluorescence level of the MAM-specific fluorescent marker: significantly reduced
